Assay results: patent EP4273147A1, “SUBSTITUTED SPIROLACTAMS, SALTS THEREOF AND THEIR USE AS HERBICIDALLY ACTIVE SUBSTANCES” (Bayer Aktiengesellschaft, priority 2022, dated 2023)

What was measured:
ECHCG [1] = assay: Herbicidal pre-emergence action (Table A2); format: in vivo, Echinochloa crus-galli; settings: visual grading after ca. 3 weeks
Summary of the method: (§1)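 Sown in sandy loam in pots and covered with soil: weed seeds, two species per pot, one of each plant class (mono- and dicotyledonous).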

LOLRI = assay: Herbicidal pre-emergence action (Table A3); format: in vivo, Lolium rigidum; settings: visual grading after ca. 3 weeks
Summary of the method: as §1

MATIN = assay: Herbicidal pre-emergence action (Table A4); format: in vivo, Matricaria inodora; settings: application rate 1280 g/ha; visual grading after ca. 3 weeks
Summary of the method: as §1

SETVI [2] = assay: Herbicidal pre-emergence action (Table A5); format: in vivo, Setaria viridis; settings: visual grading after ca. 3 weeks
Summary of the method: as §1

POAAN [3] = assay: Herbicidal pre-emergence action (Table A7); format: in vivo, Poa annua; settings: visual grading after ca. 3 weeks
Summary of the method: as §1

ECHCG [4] = assay: Herbicidal post-emergence action (Table B3); format: in vivo, Echinochloa crus-galli; settings: application rate 1280 g/ha; rated visually after about 3 weeks
Summary of the method: (§2)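 Greenhouse post-emergence screen on potted weeds in sandy loam, treatment at one-leaf stage, visual % control scored ~3 weeks later against untreated plants.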

POAAN [5] = assay: Herbicidal post-emergence action (Table B7); format: in vivo, Poa annua; settings: application rate 1280 g/ha
Summary of the method: as §2

ABUTH [6] = assay: Herbicidal pre-emergence action, section C (Table C1); format: in vivo, Abutilon theophrasti; settings: application rate 320 g/ha; visual grading after ca. 3 weeks
ECHCG [7] = assay: Herbicidal pre-emergence action, section C (Table C6); format: in vivo, Echinochloa crus-galli; settings: application rate 320 g/ha; visual grading after ca. 3 weeks
SETVI [8] = assay: Herbicidal pre-emergence action, section C (Table C10); format: in vivo, Setaria viridis; settings: visual grading after ca. 3 weeks
ZEAMX [9] = assay: Pre-emergence effects on crop plants (Table D1); format: in vivo, Zea mays; settings: crop plant, visual grading after ca. 3 weeks
TRZAS [10] = assay: Pre-emergence effects on crop plants (Table D2); format: in vivo, Triticum aestivum; settings: crop plant, visual grading after ca. 3 weeks
GLXMA [11] = assay: Pre-emergence effects on crop plants (Table D4); format: in vivo, Glycine max; settings: crop plant; application rate 320 g/ha; visual grading after ca. 3 weeks
ECHCG [12] = assay: Herbicidal post-emergence action, section E (Table E5); format: in vivo, Echinochloa crus-galli; settings: application rate 320 g/ha; assessed visually after ca. 3 weeks
Description: (§3) 2 to 3 weeks after sowing, the test plants were sprayed in the single-leaf stage.

ZEAMX [13] = assay: Post-emergence effects on crop plants (Table F1); format: in vivo, Zea mays; settings: application rate 320 g/ha, crop plant ZEAMX
Description: as §3

TRZAS [14] = assay: Post-emergence effects on crop plants (Table F2); format: in vivo, Triticum aestivum; settings: application rate 320 g/ha, crop plant TRZAS
Description: as §3

ORYZA [15] = assay: Post-emergence effects on crop plants (Table F3); format: in vivo, Oryza sativa; settings: application rate 320 g/ha, crop plant ORYZA
Description: as §3

ORYZA [16] = assay: Pre-emergence effects on crop plants (Table D3); settings: crop plant, visual grading after ca. 3 weeks
STEME = assay: Herbicidal pre-emergence action (Table A6); format: in vivo, Stellaria media; settings: visual grading after ca. 3 weeks
Summary of the method: as §1

KCHSC = assay: Herbicidal pre-emergence action (Table A10); format: in vivo, Kochia scoparia; settings: application rate 1280 g/ha; visual grading after ca. 3 weeks
Summary of the method: as §1

DIGSA [17] = assay: Herbicidal pre-emergence action (Table A12); format: in vivo, Digitaria sanguinalis; settings: application rate 320 g/ha; visual grading after ca. 3 weeks
Summary of the method: as §1

ABUTH [18] = assay: Herbicidal post-emergence action (Table B1); format: in vivo, Abutilon theophrasti; settings: application rate 1280 g/ha; treated at one-leaf stage; rated visually after about 3 weeks vs untreated controls (100% = plants have died, 0% = like control plants)
Method: Seeds of mono- and dicotyledonous weed plants were placed in plastic pots in sandy loam soil (doubly sown with in each case one species of mono- or dicotyledonous weed plants per pot), covered with soil and cultivated in a greenhouse under controlled growth conditions. 2 to 3 weeks after sowing, the test plants were treated at the one-leaf stage. […] After the test plants had been kept in the greenhouse under optimum growth conditions for about 3 weeks, the activity of the preparations was rated visually in comparison to untreated controls. For example, 100% activity = the plants have died, 0% activity = like control plants.

DIGSA [19] = assay: Herbicidal pre-emergence action, section C (Table C5); format: in vivo, Digitaria sanguinalis; settings: application rate 320 g/ha; visual grading after ca. 3 weeks
Description: Seeds of mono- and dicotyledonous weed plants and crop plants were sown, in plastic or organic planting pots, in sandy loam and covered with soil. The compounds according to the invention, formulated in the form of wettable powders (WP) or as emulsifiable concentrates (EC), were applied to the surface of the covering soil as aqueous suspension or emulsion, with the addition of 0.5% of an additive, at an application rate of 600 1 of water/ha (converted). Following treatment, the pots were placed in a greenhouse and kept under optimum growth conditions for the test plants.

BRSNW [20] = assay: Pre-emergence effects on crop plants (Table D5); format: in vivo, Brassica napus; settings: crop plant; application rate 320 g/ha; visual grading after ca. 3 weeks
Description: Seeds of mono- and dicotyledonous weed plants and crop plants were sown, in plastic or organic planting pots, in sandy loam and covered with soil. The compounds according to the invention, formulated in the form of wettable powders (WP) or as emulsifiable concentrates (EC), were applied to the surface of the covering soil as aqueous suspension or emulsion, with the addition of 0.5% of an additive, at an application rate of 600 1 of water/ha (converted).
Following treatment, the pots were placed in a greenhouse and kept under optimum growth conditions for the test plants.

VIOTR = assay: Herbicidal post-emergence action, section E (Table E10); format: in vivo, Viola tricolor; settings: application rate 320 g/ha; assessed visually after ca. 3 weeks
Description: as §3

GLXMA [21] = assay: Post-emergence effects on crop plants (Table F4); format: in vivo, Glycine max; settings: crop plant GLXMA
Description: as §3

BRSNW [22] = assay: Post-emergence effects on crop plants (Table F5); format: in vivo, Brassica napus; settings: application rate 320 g/ha, crop plant BRSNW
Description: as §3

AMARE = assay: Herbicidal pre-emergence action (Table A8); format: in vivo, Amaranthus retroflexus; settings: application rate 1280 g/ha; visual grading after ca. 3 weeks vs untreated controls (100% = plants have died off, 0% = as control plants)
Description: Seeds of mono- and dicotyledonous weed plants were sown in plastic pots (double sowings with one species of mono- and one species of dicotyledonous weed plants per pot), in sandy loam, and covered with soil.

VERPE = assay: Herbicidal pre-emergence action (Table A11); format: in vivo, Veronica persica; settings: application rate 1280 g/ha; visual grading after ca. 3 weeks
Summary of the method: as §1

Row | pre-emergence activity against ZEAMX (ZEAMX [9]; application rate 80 g/ha) | pre-emergence activity against GLXMA (GLXMA [11]) | pre-emergence activity against TRZAS (TRZAS [10]; application rate 320 g/ha) | pre-emergence activity against BRSNW (BRSNW [20]) | SMILES | pre-emergence activity against ECHCG (ECHCG [1]; application rate 320 g/ha) | pre-emergence activity against MATIN (MATIN) | pre-emergence activity against SETVI (SETVI [2]; application rate 320 g/ha) | pre-emergence activity against POAAN (POAAN [3]; application rate 1280 g/ha) | post-emergence activity against ECHCG (ECHCG [4]) | post-emergence activity against POAAN (POAAN [5]) | post-emergence activity against ZEAMX (ZEAMX [13]) | post-emergence activity against TRZAS (TRZAS [14]) | post-emergence activity against ORYZA (ORYZA [15]) | pre-emergence activity against ECHCG (ECHCG [1]; application rate 1280 g/ha) | pre-emergence activity against SETVI (SETVI [2]; application rate 1280 g/ha) | pre-emergence activity against STEME (STEME; application rate 320 g/ha) | pre-emergence activity against POAAN (POAAN [3]; application rate 320 g/ha) | pre-emergence activity against DIGSA (DIGSA [19]) | pre-emergence activity against SETVI (SETVI [8]; application rate 320 g/ha) | post-emergence activity against VIOTR (VIOTR) | further results
1 | 0% | 0% | – | – | O=C1N(Cc2ccccc2Br)CCCC12CCCN(Cc1c(F)cccc1F)C2=O (racemic) [I-048] | 100% | 90% | 100% | 90% | 90% | 90% | 20% | 20% | 0% | – | – | – | – | – | – | – | pre-emergence activity against LOLRI (LOLRI; application rate 320 g/ha): 100%; pre-emergence activity against ABUTH (ABUTH [6]): 90%; pre-emergence activity against ECHCG (ECHCG [7]): 100%; pre-emergence activity against SETVI (SETVI [8]; application rate 80 g/ha): 100%; pre-emergence activity against TRZAS (TRZAS [10]; application rate 80 g/ha): 0%; post-emergence activity against ECHCG (ECHCG [12]): 80%; pre-emergence activity against ORYZA (ORYZA [16]; application rate 80 g/ha): 0%
2 | – | – | – | – | Cc1ccccc1CN1CCC2(CCCN(Cc3c(F)cccc3F)C2=O)C1=O (racemic) [I-058] | – | 90% | – | – | 90% | 90% | – | – | – | 100% | 90% | 90% | 100% | – | – | – | pre-emergence activity against LOLRI (LOLRI; application rate 1280 g/ha): 90%; pre-emergence activity against KCHSC (KCHSC): 90%; pre-emergence activity against DIGSA (DIGSA [17]): 90%; post-emergence activity against ABUTH (ABUTH [18]): 90%
3 | – | 0% | 0% | 10% | O=C1N(Cc2c(F)cccc2Cl)CCCC12CCCN(Cc1c(F)cccc1Cl)C2=O (racemic) [I-063] | – | – | 100% | – | – | – | 10% | 0% | 0% | 100% | – | 100% | 100% | 100% | 100% | 80% | pre-emergence activity against ZEAMX (ZEAMX [9]; application rate 320 g/ha): 0%; post-emergence activity against GLXMA (GLXMA [21]; application rate 320 g/ha): 10%; post-emergence activity against BRSNW (BRSNW [22]): 10%; pre-emergence activity against ORYZA (ORYZA [16]; application rate 320 g/ha): 0%
4 | 0% | 10% | 10% | 10% | CC(c1ccccc1F)N1CCCC2(CCCN(C(C)c3ccccc3F)C2=O)C1=O (stereo not shown) [I-060] | 90% | – | – | 100% | – | – | 10% | 0% | 0% | – | 100% | – | – | 100% | 100% | 90% | pre-emergence activity against STEME (STEME; application rate 1280 g/ha): 90%; pre-emergence activity against AMARE (AMARE): 90%; pre-emergence activity against VERPE (VERPE): 90%; post-emergence activity against GLXMA (GLXMA [21]; application rate 80 g/ha): 0%; post-emergence activity against BRSNW (BRSNW [22]): 0%
